# Measured values as given in PubChem BioAssay (NCI).
#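 Grown in 96-well plates, cells were treated for 48 hours with each compound at five concentrations. Insufficient inhibition: endpoint recorded as highest concentration tested. TGI denotes the concentration required for complete inhibition of growth.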
# Assays:
# Experiment in all cases: NCI anticancer screen, dose series, 48 h
# [1] = tested on: EKVX NSCLC
# [2] = tested on: K-562 leukemia
# [3] = tested on: KM12 colon
# [4] = tested on: MCF7 breast
# [5] = tested on: PC-3 prostate
# [6] = tested on: RPMI-8226 leukemia
# [7] = tested on: SF-539 CNS
# [8] = tested on: SNB-19 CNS
# [9] = tested on: U251 CNS
# [10] = tested on: UACC-257 melanoma
Structure (SMILES),TGI [1],TGI [2],TGI [3],TGI [4],TGI [5],TGI [6],TGI [7],TGI [8],TGI [9],TGI [10]
CSC(=S)N/N=C(\C)c1ccc(S(=O)(=O)N(C)c2ccccc2)cc1,> 100 µM,> 100 µM,> 100 µM,> 100 µM,> 100 µM,> 100 µM,> 100 µM,> 100 µM,> 100 µM,> 100 µM
Cc1cc(N(CCOS(C)(=O)=O)CCOS(C)(=O)=O)ccc1C=O,22.9 µM,> 100 µM,54.6 µM,32 µM,> 100 µM,> 100 µM,2.88 µM,> 100 µM,67.4 µM,48 µM
O=c1[nH]c(=O)n(C2OC(CO)C(O)C2O)c2nc(-c3ccc(-c4ccccc4)cc3)cnc12 (stereo not given),> 100 µM,> 100 µM,> 100 µM,> 100 µM,> 100 µM,> 100 µM,> 100 µM,> 100 µM,> 100 µM,> 100 µM
NS(=O)(=O)c1cc2c(cc1Cl)NC(CCC(=O)O)=NS2(=O)=O,> 100 µM,> 100 µM,> 100 µM,> 100 µM,> 100 µM,> 100 µM,> 100 µM,> 100 µM,> 100 µM,> 100 µM
COc1cc(C2c3cc4c(cc3OC(NN)C2C)OCO4)cc(OC)c1OC (stereo not given),> 100 µM,> 31.1 µM,> 100 µM,> 40 µM,> 100 µM,67.7 µM,0.6 µM,> 100 µM,16.2 µM,> 100 µM
CC1=C[C@@H]2Cc3nc4cc(Cl)ccc4c(N)c3[C@H](C1)C2,13.3 µM,14.3 µM,21.6 µM,23.3 µM,26.9 µM,13.4 µM,25.3 µM,24 µM,37.7 µM,4.9 µM
O=C1c2ccccc2-c2c1c(-c1ccc(F)cc1)nc1ccc3ccccc3c21,> 100 µM,> 100 µM,> 100 µM,> 100 µM,> 100 µM,> 100 µM,> 100 µM,> 100 µM,> 100 µM,> 100 µM
COC(=O)C1CCC(=O)N1C(c1ccc(OC)cc1)c1ccc2c(c1)OCO2 (stereo not given),> 100 µM,> 100 µM,> 100 µM,> 100 µM,> 100 µM,> 100 µM,98.6 µM,> 100 µM,> 100 µM,> 100 µM
Cc1c(S(=O)(=O)c2ccccc2)c(N)n(CCN(C)C)c1C,> 100 µM,> 100 µM,> 100 µM,> 100 µM,> 100 µM,> 100 µM,> 100 µM,> 100 µM,> 100 µM,> 100 µM
CCN(CC)CCn1c(=O)c2cccnc2n2c3c(=O)n(C)c(=O)n(C)c3nc12,> 100 µM,> 100 µM,> 100 µM,> 100 µM,> 100 µM,> 100 µM,> 100 µM,> 100 µM,> 100 µM,> 100 µM
CC1=NN(c2cccc(Cl)c2)C2(C1=C/C=C/c1ccccc1)C(Cl)C(=O)N2c1nc2ccccc2s1 (stereo not given),> 100 µM,31 µM,> 67.5 µM,> 100 µM,> 82.9 µM,23.5 µM,> 86.1 µM,> 100 µM,37.2 µM,> 100 µM
CCOC(=O)c1c(C)nc2c3ccccc3c(C#N)c(C)n12,> 100 µM,> 100 µM,> 100 µM,> 100 µM,> 100 µM,> 100 µM,> 100 µM,> 100 µM,> 100 µM,> 100 µM
CCNC(=O)Cc1nc2c(N)ncnc2n1C1OC(CO)C(O)C1O (stereo not given),> 100 µM,> 100 µM,> 100 µM,86.5 µM,> 100 µM,> 100 µM,> 100 µM,> 100 µM,> 100 µM,> 100 µM
COc1ccc2c(c1)/C(=C\c1c(Cl)nc3sc(C)cn13)C(=O)N2,21.2 µM,9.56 µM,15.2 µM,14.2 µM,12.4 µM,13.8 µM,6.76 µM,13.4 µM,11.6 µM,21 µM
CCCCC(C(=O)NCCNC(=O)CCC(=O)N(C)O)C(=O)NCCNC(=O)CCC(=O)N(C)O,> 100 µM,> 100 µM,> 100 µM,> 100 µM,> 100 µM,> 100 µM,> 100 µM,> 100 µM,> 100 µM,> 100 µM
COc1cc(/C=C/C(=O)CC(=O)/C=C/c2ccc(OC(=O)CCCCC3CCSS3)c(OC)c2)ccc1OC(=O)CCCCC1CCSS1 (stereo not given),> 100 µM,> 100 µM,> 100 µM,> 100 µM,> 100 µM,> 100 µM,> 100 µM,> 100 µM,> 100 µM,> 100 µM
NC1=NCC(CN2CCOCC2)O1 (stereo not given),> 100 µM,> 100 µM,> 100 µM,> 100 µM,> 100 µM,> 100 µM,> 100 µM,> 100 µM,> 100 µM,> 100 µM
Cc1nc(N)c(N2CCN([N+](=O)[O-])CC2)c(=O)[nH]1,> 100 µM,> 100 µM,> 100 µM,> 100 µM,> 100 µM,> 100 µM,> 100 µM,> 100 µM,> 100 µM,> 100 µM
C=CCSc1nnc2cc(CN3CCCC3)c(-c3ccc(Cl)cc3)nn12,43.8 µM,> 100 µM,64.7 µM,33.7 µM,35.3 µM,> 100 µM,36.2 µM,71.7 µM,31.2 µM,32.3 µM
COc1cccc2c(=O)oc(-c3ccc(C(C)(C)C)cc3)nc12,> 100 µM,> 100 µM,> 100 µM,> 100 µM,> 100 µM,> 100 µM,> 100 µM,> 100 µM,> 100 µM,> 100 µM
O=[N+]([O-])c1ccc(Oc2c(Cl)cc(S(=O)(=O)/N=C(\NO)Nc3ccc(Cl)cc3)cc2Cl)cc1,24.9 µM,35.9 µM,29 µM,24.1 µM,22.2 µM,22.8 µM,26.7 µM,29.2 µM,25.7 µM,22.6 µM
COc1ccc(NC(=O)CC(=O)N2N=C(N3c4ccccc4Sc4ccccc43)CC2c2ccccc2)cc1 (stereo not given),> 100 µM,> 100 µM,> 100 µM,> 100 µM,> 100 µM,> 100 µM,> 100 µM,> 100 µM,> 100 µM,> 100 µM
N=C(N)SCc1ccc2c(c1)Sc1ccccc1O2,27 µM,> 100 µM,16.4 µM,13.5 µM,16.5 µM,> 36.8 µM,7.79 µM,30.6 µM,> 71.4 µM,14.2 µM
Cc1ccc(S(=O)(=O)N/N=C/C2(c3ccccc3)c3ccccc3-c3ccccc32)cc1,30.2 µM,> 100 µM,20.2 µM,29.6 µM,13.4 µM,87.2 µM,30.9 µM,73 µM,26.7 µM,31.4 µM
Cc1ccc2c(c1)C(=O)C1(Cc3ccccc3C1=O)C2 (stereo not given),> 100 µM,> 100 µM,> 100 µM,> 100 µM,> 100 µM,> 100 µM,> 100 µM,> 100 µM,> 100 µM,> 100 µM
